Assay results as given in the NIST ThermoML archive (doi:10.1021/je700671t).

Test: xn = mol fraction of the nth substance listed
Details: 101 kPa, Liquid; for viscosity: Capillary tube (Ostwald / Ubbelohde) method

CN(C)C=O [dimethylformamide] + O
Details | mass density, 283.15 K [kg/m3] | mass density, 288.15 K [kg/m3] | mass density, 293.15 K [kg/m3] | mass density, 298.15 K [kg/m3] | viscosity, 293.15 K [mPa·s] | viscosity, 303.15 K [mPa·s]
x1 = 0.02 | 1000.31 | 999.23 | 997.92 | 996.39 | 1.234 | 0.97
x1 = 0.04 | 1001.42 | 999.91 | 998.2 | 996.31 | 1.442 | 1.114
x1 = 0.06 | 1002.8 | 1000.87 | 998.77 | 996.53 | 1.656 | 1.269
x1 = 0.08 | 1004.13 | 1001.82 | 999.37 | 996.8 | 1.847 | 1.407
x1 = 0.1 | 1005.32 | 1002.67 | 999.9 | 997.03 | 2.062 | 1.55
x1 = 0.2 | 1007.64 | 1003.86 | 1000.01 | 996.13 | 2.782 | 2.051
x1 = 0.3 | 1004.4 | 1000.1 | 995.76 | 991.4 | 2.954 | –
x1 = 0.398 | 997.83 | 993.31 | 988.76 | 984.18 | 2.622 | –
x1 = 0.498 | 990.56 | 985.94 | 981.3 | 976.64 | 2.162 | –
x1 = 0.599 | 983.02 | 978.36 | 973.67 | 968.96 | 1.713 | –
x1 = 0.697 | 976.07 | 971.37 | 966.65 | 961.92 | 1.377 | –
x1 = 0.798 | 969.84 | 965.11 | 960.37 | 955.63 | 1.153 | –
x1 = 1 | 958.96 | 954.17 | 949.39 | 944.6 | 0.864 | –
